# Laboratory results as given in patent publication US11905294B2, “Imidazo[1,5-a]pyrazine derivatives as PI3Kδ inhibitors” (BEIGENE, LTD., priority 2017, dated 2024).
# Experiments:
# Assay type in all cases: biochemical
# PI3K (p110γ) = PI3K (p110γ) (Homo sapiens, UniProt P48736); assay: PI3Kγ assay (ADP-Glo Kinase Assay); details: recombinant enzyme; IC50 (nM) or max inhibition (%) at 0.5 μM
# PI3K (p110β/p85α) = PI3K (p110β/p85α) (Homo sapiens, UniProt P42338); assay: PI3Kβ assay (ADP-Glo Kinase Assay); details: read-out: Enzyme activity IC50 PI3Kβ
# Sequence of PI3K (p110β/p85α) (P42338 whole entry): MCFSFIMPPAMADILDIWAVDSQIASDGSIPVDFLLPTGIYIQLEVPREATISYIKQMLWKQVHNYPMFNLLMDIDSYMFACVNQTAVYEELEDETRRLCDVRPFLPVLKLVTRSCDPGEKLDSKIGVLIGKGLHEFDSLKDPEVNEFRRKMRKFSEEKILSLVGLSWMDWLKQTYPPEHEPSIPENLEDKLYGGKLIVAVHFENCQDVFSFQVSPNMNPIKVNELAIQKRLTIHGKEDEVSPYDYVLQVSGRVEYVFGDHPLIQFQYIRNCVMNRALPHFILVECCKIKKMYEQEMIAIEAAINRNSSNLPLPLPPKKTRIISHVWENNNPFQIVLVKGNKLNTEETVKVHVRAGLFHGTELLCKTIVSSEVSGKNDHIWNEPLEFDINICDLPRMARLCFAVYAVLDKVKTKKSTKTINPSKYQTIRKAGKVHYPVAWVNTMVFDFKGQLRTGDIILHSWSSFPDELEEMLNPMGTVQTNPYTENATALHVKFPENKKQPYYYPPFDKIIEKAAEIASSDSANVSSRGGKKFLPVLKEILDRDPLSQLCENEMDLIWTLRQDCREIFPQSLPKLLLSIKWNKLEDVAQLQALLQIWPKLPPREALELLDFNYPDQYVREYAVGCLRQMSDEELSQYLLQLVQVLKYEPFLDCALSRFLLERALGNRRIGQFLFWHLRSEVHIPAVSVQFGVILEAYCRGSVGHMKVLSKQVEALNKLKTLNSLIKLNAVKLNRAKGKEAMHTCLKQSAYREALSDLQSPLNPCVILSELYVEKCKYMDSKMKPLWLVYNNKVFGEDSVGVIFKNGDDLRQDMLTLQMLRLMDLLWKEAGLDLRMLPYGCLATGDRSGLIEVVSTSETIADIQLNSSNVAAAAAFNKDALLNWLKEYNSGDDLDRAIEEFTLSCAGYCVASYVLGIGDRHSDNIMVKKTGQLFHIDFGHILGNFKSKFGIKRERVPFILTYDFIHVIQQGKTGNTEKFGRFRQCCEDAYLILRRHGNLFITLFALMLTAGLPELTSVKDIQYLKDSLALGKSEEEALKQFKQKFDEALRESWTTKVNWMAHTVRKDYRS
# Sequence of PI3K (p110β/p85α) (P27986 whole entry partner): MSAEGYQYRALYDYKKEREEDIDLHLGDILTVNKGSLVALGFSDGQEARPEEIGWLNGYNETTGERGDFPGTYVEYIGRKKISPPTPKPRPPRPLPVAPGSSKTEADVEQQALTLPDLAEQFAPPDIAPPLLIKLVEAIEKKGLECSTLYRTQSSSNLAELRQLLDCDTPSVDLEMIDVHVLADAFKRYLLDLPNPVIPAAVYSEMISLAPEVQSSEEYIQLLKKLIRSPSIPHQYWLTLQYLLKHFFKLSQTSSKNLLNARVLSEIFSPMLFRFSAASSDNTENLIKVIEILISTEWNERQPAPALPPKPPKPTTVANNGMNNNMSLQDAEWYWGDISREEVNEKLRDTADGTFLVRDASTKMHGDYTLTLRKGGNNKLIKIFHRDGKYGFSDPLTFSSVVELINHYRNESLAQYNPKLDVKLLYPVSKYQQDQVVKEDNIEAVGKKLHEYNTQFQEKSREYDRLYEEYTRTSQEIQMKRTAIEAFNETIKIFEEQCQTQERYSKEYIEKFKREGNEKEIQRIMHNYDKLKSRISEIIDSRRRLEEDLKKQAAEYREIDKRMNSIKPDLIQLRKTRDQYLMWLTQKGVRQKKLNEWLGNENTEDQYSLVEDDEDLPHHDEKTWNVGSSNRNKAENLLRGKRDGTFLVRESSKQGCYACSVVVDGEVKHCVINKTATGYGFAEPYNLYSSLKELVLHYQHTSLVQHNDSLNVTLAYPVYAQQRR
# PI3K (p110α/p85α) = PI3K (p110α/p85α) (Homo sapiens, UniProt P42336); assay: PI3Kα assay (ADP-Glo Kinase Assay); details: recombinant enzyme; IC50 (nM) or max inhibition (%) at 0.5 μM
# Sequence of PI3K (p110α/p85α) (P42336 whole entry): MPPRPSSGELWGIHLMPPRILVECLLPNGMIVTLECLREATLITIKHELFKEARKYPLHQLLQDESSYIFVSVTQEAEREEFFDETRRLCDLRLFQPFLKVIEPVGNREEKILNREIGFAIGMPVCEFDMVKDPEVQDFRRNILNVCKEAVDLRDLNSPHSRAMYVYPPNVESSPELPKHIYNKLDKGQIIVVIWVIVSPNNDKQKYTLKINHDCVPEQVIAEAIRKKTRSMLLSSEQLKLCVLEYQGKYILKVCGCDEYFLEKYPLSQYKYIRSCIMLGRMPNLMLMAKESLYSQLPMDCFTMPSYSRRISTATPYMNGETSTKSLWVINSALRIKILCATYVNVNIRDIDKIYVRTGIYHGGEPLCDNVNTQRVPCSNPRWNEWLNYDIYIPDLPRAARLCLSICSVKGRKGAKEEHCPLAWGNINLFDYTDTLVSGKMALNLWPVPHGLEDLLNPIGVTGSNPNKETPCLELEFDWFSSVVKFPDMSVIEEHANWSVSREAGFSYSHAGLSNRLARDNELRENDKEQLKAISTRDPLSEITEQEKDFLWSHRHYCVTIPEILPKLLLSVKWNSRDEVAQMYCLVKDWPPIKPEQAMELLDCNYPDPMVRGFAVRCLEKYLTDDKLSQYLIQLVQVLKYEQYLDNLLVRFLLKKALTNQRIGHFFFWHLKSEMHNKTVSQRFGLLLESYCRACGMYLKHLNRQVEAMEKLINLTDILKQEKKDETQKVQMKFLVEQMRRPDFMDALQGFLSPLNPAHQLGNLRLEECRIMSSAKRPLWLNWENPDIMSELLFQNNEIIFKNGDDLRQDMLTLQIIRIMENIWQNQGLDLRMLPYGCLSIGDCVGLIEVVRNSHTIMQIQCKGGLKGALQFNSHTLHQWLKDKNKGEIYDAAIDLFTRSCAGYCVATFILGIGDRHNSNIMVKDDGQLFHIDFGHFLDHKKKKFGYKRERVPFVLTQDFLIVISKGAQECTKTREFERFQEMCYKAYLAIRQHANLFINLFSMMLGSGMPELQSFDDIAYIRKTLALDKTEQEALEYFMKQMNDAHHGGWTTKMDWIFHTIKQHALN
# Sequence of PI3K (p110α/p85α) (P27986 whole entry partner): as the sequence (P27986 whole entry partner) above
# PI3K (p110δ/p85α) = PI3K (p110δ/p85α) (Homo sapiens, UniProt O00329); assay: PI3Kδ assay (ADP-Glo Kinase Assay); details: recombinant enzyme; IC50 (nM) or max inhibition (%) at 0.5 μM
# Sequence of PI3K (p110δ/p85α) (O00329 whole entry): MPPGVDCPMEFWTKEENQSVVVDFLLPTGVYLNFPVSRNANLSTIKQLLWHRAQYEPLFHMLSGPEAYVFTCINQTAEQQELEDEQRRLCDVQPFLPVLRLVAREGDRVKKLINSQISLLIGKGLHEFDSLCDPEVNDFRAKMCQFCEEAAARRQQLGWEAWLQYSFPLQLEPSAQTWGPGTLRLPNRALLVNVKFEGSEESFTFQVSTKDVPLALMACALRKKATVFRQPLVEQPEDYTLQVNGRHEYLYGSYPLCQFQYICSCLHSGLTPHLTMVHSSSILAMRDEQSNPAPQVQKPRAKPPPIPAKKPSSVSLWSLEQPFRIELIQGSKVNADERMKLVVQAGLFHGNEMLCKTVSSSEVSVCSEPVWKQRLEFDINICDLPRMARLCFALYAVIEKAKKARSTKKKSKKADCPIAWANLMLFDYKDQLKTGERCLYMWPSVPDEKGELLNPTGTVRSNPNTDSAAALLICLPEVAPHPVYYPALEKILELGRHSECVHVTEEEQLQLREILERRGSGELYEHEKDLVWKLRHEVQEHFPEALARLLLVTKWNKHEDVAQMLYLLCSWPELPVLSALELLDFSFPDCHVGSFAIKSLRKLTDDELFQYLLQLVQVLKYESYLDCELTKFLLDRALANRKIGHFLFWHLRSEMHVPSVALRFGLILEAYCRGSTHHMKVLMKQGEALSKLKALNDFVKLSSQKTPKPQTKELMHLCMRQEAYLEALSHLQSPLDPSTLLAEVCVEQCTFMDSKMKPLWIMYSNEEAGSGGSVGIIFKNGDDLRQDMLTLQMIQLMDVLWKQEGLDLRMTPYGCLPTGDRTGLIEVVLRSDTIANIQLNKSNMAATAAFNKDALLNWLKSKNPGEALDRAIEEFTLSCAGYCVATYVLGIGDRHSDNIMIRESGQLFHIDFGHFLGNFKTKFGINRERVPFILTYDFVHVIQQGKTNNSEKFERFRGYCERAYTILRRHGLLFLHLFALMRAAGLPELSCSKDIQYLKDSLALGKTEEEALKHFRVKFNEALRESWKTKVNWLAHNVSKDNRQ
# Sequence of PI3K (p110δ/p85α) (P27986 whole entry partner): as the sequence (P27986 whole entry partner) above
# Experimental: Compounds disclosed herein were tested for inhibition of PI3Kδ kinase activity using commercial ADP-Glo™ Kinase Assay (Promega Corporation) and following the manufacture's instruction. Briefly, recombinant PI3K (p110δ/p85α) enzyme, lipid kinase substrate and a serial dilution of compounds disclosed herein were incubated for 0.5 hr at room temperature. ATP was added to initiate the kinase reaction. After incubation for 1 hr at room temperature, ADP-Glo™ reagent was added to terminate the kinase reaction and deplete the remaining ATP. After incubation for 1 hr at room temperature, kinase detection reagent was added to simultaneously convert ADP to ATP and allow the newly synthesized ATP to be measured using a luciferase/luciferin reaction. After incubation for 0.5 hr at room temperature, the luminescence generated was measured on a PHERAstar FS plate reader (BMG LABTECH). The residual enzyme activity in presence of increasing concentrations of compounds was calculated based on the luminescence. The IC50 for each compound was derived from fitting the data to the four-parameter logistic equation by Graphpad Prism software.
# Sequence of PI3K (p110γ) (P48736 whole entry): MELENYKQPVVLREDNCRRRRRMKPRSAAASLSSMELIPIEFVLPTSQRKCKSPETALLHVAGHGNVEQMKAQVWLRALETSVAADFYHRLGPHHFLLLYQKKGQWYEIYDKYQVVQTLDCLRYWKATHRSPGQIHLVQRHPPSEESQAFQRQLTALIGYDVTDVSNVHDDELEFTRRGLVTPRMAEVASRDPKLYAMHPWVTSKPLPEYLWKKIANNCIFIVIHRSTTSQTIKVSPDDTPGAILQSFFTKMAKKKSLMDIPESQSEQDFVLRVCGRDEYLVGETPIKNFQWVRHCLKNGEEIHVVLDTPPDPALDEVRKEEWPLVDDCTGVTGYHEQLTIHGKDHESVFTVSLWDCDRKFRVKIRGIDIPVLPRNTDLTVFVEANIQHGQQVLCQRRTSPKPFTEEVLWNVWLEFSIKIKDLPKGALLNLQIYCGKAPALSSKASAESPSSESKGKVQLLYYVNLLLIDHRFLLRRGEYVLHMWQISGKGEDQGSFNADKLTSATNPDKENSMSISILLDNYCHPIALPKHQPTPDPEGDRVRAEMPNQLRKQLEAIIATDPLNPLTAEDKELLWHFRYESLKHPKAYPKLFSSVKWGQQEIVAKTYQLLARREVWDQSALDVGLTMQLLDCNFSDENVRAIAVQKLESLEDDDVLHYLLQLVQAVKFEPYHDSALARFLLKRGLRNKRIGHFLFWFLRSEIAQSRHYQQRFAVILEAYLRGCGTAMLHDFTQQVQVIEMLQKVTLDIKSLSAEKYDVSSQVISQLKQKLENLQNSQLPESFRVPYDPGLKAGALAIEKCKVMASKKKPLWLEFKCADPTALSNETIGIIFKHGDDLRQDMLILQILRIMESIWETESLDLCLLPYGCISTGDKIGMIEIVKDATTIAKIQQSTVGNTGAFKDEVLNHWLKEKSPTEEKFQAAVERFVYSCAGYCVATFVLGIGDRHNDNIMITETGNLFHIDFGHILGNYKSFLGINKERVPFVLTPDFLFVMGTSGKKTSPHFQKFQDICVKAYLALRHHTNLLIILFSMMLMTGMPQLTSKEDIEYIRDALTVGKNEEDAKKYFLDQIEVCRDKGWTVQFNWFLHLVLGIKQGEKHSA
IC50 (PI3K (p110γ)) [nM],IC50 (PI3K (p110β/p85α)) [µM],IC50 (PI3K (p110α/p85α)) [nM],IC50 (PI3K (p110δ/p85α)) [nM],SMILES
2000,11,13000,1,"Cc1nc(C(C)c2cc(Cl)c(F)c(C(=O)N3CCOCC3)c2OC(C)C)n2ccnc(N)c12 (single isomer, unassigned) [Compound 4A]"
–,–,–,> 1000,"Cc1nc(C(C)c2cc(Cl)c(F)c(C(=O)N3CCOCC3)c2OC(C)C)n2ccnc(N)c12 (single isomer, unassigned) [Compound 4B]"
9300,> 50,20000,3,"Cc1nc(C(C)c2cc(Cl)c(F)c(C(=O)N3CCC(F)(F)CC3)c2OC(C)C)n2ccnc(N)c12 (single isomer, unassigned) [Compound 13A]"
–,–,–,> 1000,"Cc1nc(C(C)c2cc(Cl)c(F)c(C(=O)N3CCC(F)(F)CC3)c2OC(C)C)n2ccnc(N)c12 (single isomer, unassigned) [Compound 13B]"
7900,13,18000,1.4,"Cc1nc(C(C)c2cc(Cl)c(F)c(C(=O)N[C@H]3CC[C@@H](O)C3)c2OC(C)C)n2ccnc(N)c12 (single isomer, unassigned) [Compound 14A]"
–,–,–,320,"Cc1nc(C(C)c2cc(Cl)c(F)c(C(=O)N[C@H]3CC[C@@H](O)C3)c2OC(C)C)n2ccnc(N)c12 (single isomer, unassigned) [Compound 14B]"
9800,> 50,> 50000,9.7,"Cc1nc(C(C)c2cc(Cl)c(F)c(C(=O)N3CC(C(=O)O)C3)c2OC(C)C)n2ccnc(N)c12 (stereo not drawn) [Compound 1, 1-(3-(1-(8-amino-1-methylimidazo[1,5-a]pyrazin-3-yl)ethyl)-5-chloro-6-fluoro-2-isopropoxybenzoyl)azetidine-3-carboxylic acid]"
5500,> 50,> 50000,14,"Cc1nc(C(C)c2cc(Cl)c(F)c(C(=O)NC3(C(=O)O)CC3)c2OC(C)C)n2ccnc(N)c12 (stereo not drawn) [Compound 2, 1-(3(1-(8-amino-1-methylimidazo[1,5-a]pyrazin-3-yl)ethyl)-5-chloro-6-fluoro-2-isopropoxybenzamido)cyclopropane-1-carboxylic acid]"
19000,34,49000,6.3,"Cc1nc(C(C)c2cc(Cl)c(F)c(C(=O)N3CC(O)C3)c2OC(C)C)n2ccnc(N)c12 (stereo not drawn) [Compound 3, (3-(1-(8-amino-1-methylimidazo[1,5-a]pyrazin-3-yl)ethyl)-5-chloro-6-fluoro-2-isopropoxyphenyl)(3-hydroxyazetidin-1-yl)methanone]"
3100,24,25000,1.9,"Cc1nc(C(C)c2cc(Cl)c(F)c(C(=O)N3CCOCC3)c2OC(C)C)n2ccnc(N)c12 (stereo not drawn) [Compound 4, (3-(1-(8-amino-1-methylimidazo[1,5-a]pyrazin-3-yl)ethyl)-5-chloro-6-fluoro-2-isopropoxyphenyl)(morpholino)methanone]"
10000,16,56000,–,"Cc1nc(C(C)c2cc(Cl)c(F)c(C(=O)NC3(CO)CC3)c2OC(C)C)n2ccnc(N)c12 (stereo not drawn) [Compound 5, 3-(1-(8-amino-1-methylimidazo[1,5-a]pyrazin-3-yl)ethyl)-5-chloro-6-fluoro-N-(1-(hydroxymethyl)cyclopropyl)-2-isopropoxybenzamide]"
6300,20,21000,–,Cc1nc([C@@H](C)c2cc(Cl)c(F)c(C(=O)NC3(CO)CC3)c2OC(C)C)n2ccnc(N)c12 [Compound 5A]
17000,> 50,> 50000,2.9,"Cc1nc(C(C)c2cc(Cl)c(F)c(C(=O)N3CC[C@H](O)C3)c2OC(C)C)n2ccnc(N)c12 (stereo partly drawn) [Compound 6, (3-(1-(8-amino-1-methylimidazo[1,5-a]pyrazin-3-yl)ethyl)-5-chloro-6-fluoro-2-isopropoxyphenyl)((S)-3-hydroxypyrrolidin-1-yl)methanone]"
17000,> 50,> 50000,6,"Cc1nc(C(C)c2cc(Cl)c(F)c(C(=O)N3CCC(O)CC3)c2OC(C)C)n2ccnc(N)c12 (stereo not drawn) [Compound 7, (3-(1-(8-amino-1-methylimidazo[1,5-a]pyrazin-3-yl)ethyl)-5-chloro-6-fluoro-2-isopropoxyphenyl)(4-hydroxypiperidin-1-yl)methanone]"
6800,16,49000,2.3,"COCCNC(=O)c1c(F)c(Cl)cc(C(C)c2nc(C)c3c(N)nccn23)c1OC(C)C (stereo not drawn) [Compound 8, 3-(1-(8-amino-1-methylimidazo[1,5-a]pyrazin-3-yl)ethyl)-5-chloro-6-fluoro-2-isopropoxy-N-(2-methoxyethyl)benzamide]"
9200,18,43000,2.9,"Cc1nc(C(C)c2cc(Cl)c(F)c(C(=O)NC[C@@H](C)O)c2OC(C)C)n2ccnc(N)c12 (stereo partly drawn) [Compound 9, 3-(1-(8-amino-1-methylimidazo[1,5-a]pyrazin-3-yl)ethyl)-5-chloro-6-fluoro-N-((R)-2-hydroxypropyl)-2-isopropoxybenzamide]"
–,–,–,2.1,"Cc1nc([C@@H](C)c2cc(Cl)c(F)c(C(=O)N3CCC[C@H](O)C3)c2OC(C)C)n2ccnc(N)c12 [Compound 20, (3-((S)-1-(8-amino-1-methylimidazo[1,5-a]pyrazin-3-yl)ethyl)-5-chloro-6-fluoro-2-isopropoxyphenyl)((S)-3-hydroxypiperidin-1-yl)methanone]"
–,–,–,3.7,"Cc1nc([C@@H](C)c2cc(Cl)c(F)c(C(=O)N[C@H](C)c3ccccc3)c2OC(C)C)n2ccnc(N)c12 [Compound 22, 3-((S)-1-(8-amino-1-methylimidazo[1,5-a]pyrazin-3-yl)ethyl)-5-chloro-6-fluoro-2-isopropoxy-N-((R)-1-phenylethyl)benzamide]"
–,–,–,9.9,"Cc1nc([C@@H](C)c2cc(Cl)c(F)c(C(=O)N[C@@H]3CCC[C@@H]3O)c2OC(C)C)n2ccnc(N)c12 [Compound 23, 3((S)-1-(8-amino-1-methylimidazo[1,5-a]pyrazin-3-yl)ethyl)-5-chloro-6-fluoro-N-((1R,2S)-2-hydroxycyclopentyl)-2-isopropoxybenzamide]"
–,–,–,3.2,"Cc1nc([C@@H](C)c2cc(Cl)c(F)c(C(=O)N(C)C)c2OC(C)C)n2ccnc(N)c12 [Compound 32, (S)-3-(1-(8-amino-1-methylimidazo[1,5-a]pyrazin-3-yl)ethyl)-5-chloro-6-fluoro-2-isopropoxy-N,N-dimethylbenzamide]"
–,–,–,6.5,"Cc1nc([C@@H](C)c2cc(Cl)c(F)c(C(=O)N[C@]3(C)CC[C@@H](O)CC3)c2OC(C)C)n2ccnc(N)c12 [Compound 40, 3-((S)-1-(8-amino-1-methylimidazo[1,5-a]pyrazin-3-yl)ethyl)-5-chloro-6-fluoro-N-((1R,4S)-4-hydroxy-1-methylcyclohexyl)-2-isopropoxybenzamide]"
–,–,–,9.1,"Cc1nc([C@@H](C)c2cc(Cl)c(F)c(C(=O)N[C@@H]3CCCC[C@@H]3O)c2OC(C)C)n2ccnc(N)c12 [Compound 48, 3-((S)-1-(8-amino-1-methylimidazo[1,5-a]pyrazin-3-yl)ethyl)-5-chloro-6-fluoro-N-((1R,2S)-2-hydroxycyclohexyl)-2-isopropoxybenzamide]"
–,–,–,3.9,"Cc1nc([C@@H](C)c2cc(Cl)c(F)c(C(=O)N[C@@H]3CCCC[C@H]3O)c2OC(C)C)n2ccnc(N)c12 [Compound 49, 3-((S)-1-(8-amino-1-methylimidazol[1,5-a]pyrazin-3-yl)ethyl)-5-chloro-6-fluoro-N-((1R,2R)-2-hydroxycyclohexyl)-2-isopropoxybenzamide]"
–,–,–,11,"Cc1nc([C@@H](C)c2cc(Cl)c(F)c(C(=O)NC3(CN(C)C)CC3)c2OC(C)C)n2ccnc(N)c12 [Compound 54, (S)-3-(1-(8-amino-1-methylimidazo[1,5-a]pyrazin-3-yl)ethyl)-5-chloro-N-(1-((dimethylamino)methyl)cyclopropyl)-6-fluoro-2-isopropoxybenzamide]"
6900,> 50,–,2.9,"CO[C@H]1CCCN(C(=O)c2c(F)c(Cl)cc([C@H](C)c3nc(C)c4c(N)nccn34)c2OC(C)C)C1 [Compound 65, (3-((S)-1-(8-amino-1-methylimidazo[1,5-a]pyrazin-3-yl)ethyl)-5-chloro-6-fluoro-2-isopropoxyphenyl)((S)-3-methoxypiperidin-1-yl)methanone]"
–,–,–,8,"Cc1nc([C@@H](C)c2cc(Cl)c(F)c(C(=O)N3C[C@@H](C)O[C@@H](C)C3)c2OC(C)C)n2ccnc(N)c12 [Compound 67, (3-((S)-1-(8-amino-1-methylimidazo[1,5-a]pyrazin-3-yl)ethyl)-5-chloro-6-fluoro-2-isopropoxyphenyl)((2R,6S)-2,6-dimethylmorpholino)methanone]"
–,–,–,6.8,"Cc1nc([C@@H](C)c2cc(Cl)c(F)c(C(=O)N[C@H](C)[C@@H](C)O)c2OC(C)C)n2ccnc(N)c12 [Compound 72, 3-((S)-1-(8-amino-1-methylimidazo[1,5-a]pyrazin-3-yl)ethyl)-5-chloro-6-fluoro-N-((2R,3R)-3-hydroxybutan-2-yl)-2-isopropoxybenzamide]"
